# Assay results: patent publication US20220151955A1, “KETAMINE FOR THE TREATMENT OF […] AND DISORDERS” (The Ketamine Research Foundation, priority 2019, published 2022)
# Experiments:
# [1] = in vivo; cited from earlier work
# [2] = Ketamine levels in the breast milk of lactating women after intramuscular ketamine hydrochloride; type: in vivo; conditions: 0.5 and 1.0 mg/kg intramuscular
# Description: A study of the pharmacodynamics of ketamine in the breast milk of lactating women was performed. Ketamine levels in breast milk were quantified in lactating subjects over time. Four women were given intramuscular injections of ketamine hydrochloride at two doses: 0.5 mg/kg and 1.0 mg/kg at intervals of at least one week apart. Breast milk was collected in one subject at 3 hour intervals through 24 hours, and the succeeding three subjects at 3 hour intervals up to 12 hours. Subjects were of different weights and ethnic backgrounds.
# Administered dosages of ketamine ranged from 28 mg to 76 mg. […] For subjects receiving the 0.5 mg/kg dose, the observed range for ketamine in the breast milk of the subject at the 9 to 12 hour collection period (total expression of milk during the period) ranged from 0.09 mg to 1.66 mg. For subjects receiving the 1.0 mg/kg dose, the observed range for ketamine in the breast milk of the subject at the 9 to 12 hour collection period (total expression of milk during the period) ranged from 1.067 mg to 6.22 mg. The highest ketamine level (6.22 mg) was observed following administration of a 76 mg dose of ketamine hydrochloride.
# [3] = cited from earlier work
# [4] = tested on: women with postpartum depression; conditions: cited from earlier work
structure (smiles),measurement,setting,value
CNC1(c2ccccc2Cl)CCCCC1=O (centres unmarked) [ketamine],half-life,[1],less than two and a half hours
same,levels detectable in breast milk at 12 hours,[2],only minimal levels
CN[C@]1(c2ccccc2Cl)CCCCC1=O [S-(+)-ketamine],potency relative to R-(−)-ketamine,[3]; for use in anesthesia,twice as potent as R-(−)-ketamine
CC(=O)[C@H]1CC[C@H]2[C@@H]3CC[C@H]4C[C@H](O)CC[C@]4(C)[C@H]3CC[C@]12C [brexanolone],women no longer clinically depressed,"[4]; within 60 hours, intravenous over 60 hours, two clinical trials of about 250 women, placebo 25 percent",50%
same,adverse effects experienced by some women,[4]; women who received brexanolone,excessive sedation and sudden loss of consciousness
NC1(c2ccccc2Cl)CCCCC1=O (centres unmarked) [norketamine],potency relative to ketamine (estimated),"[3]; active metabolite, as stated in Example 1",one-third the potency of ketamine
same,potency relative to ketamine,[3]; for use in anesthesia,one third the potency of ketamine
same,levels detectable in breast milk at 12 hours,[2],only minimal levels
